PubChem BioAssay AID248 (DTP/NCI, 2004)
Values joined by “and” are separate entries in the source; they are usually repeats but may differ in a detail not shown here. Equal entries are not always repeated. Toxic doses and inconclusive results are not listed. Rule as the data show it: active = T/C of 150% or more; inactive = T/C below 125%.

Tested on: L1210 leukemia ip in BDF1 mice, survival T/C
Assay: NCI In Vivo Anticancer Drug Screen. Data for tumor model L1210 Leukemia (intraperitoneal) in B6D2F1 (BDF1) mice
Settings: endpoint: mean survival time, higher = longer survival
Summary of the method: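 Each compound was tested against a transplantable tumor grown in mice. The endpoint was survival, with treated animals benchmarked against vehicle controls as a simple ratio.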

[1] = dose: 100.0 mg/kg/injection, schedule: Q04DX003 (ip), vehicle: saline with Tween-80
[2] = dose: 200.0 mg/kg/injection, schedule: Q04DX003 (ip), vehicle: saline with Tween-80
[3] = dose: 400.0 mg/kg/injection, schedule: Q04DX003 (ip), vehicle: saline with Tween-80
[4] = dose: 100.0 mg/kg/injection, schedule: Q01DX001 (ip), vehicle: saline
[5] = dose: 200.0 mg/kg/injection, schedule: Q01DX001 (ip), vehicle: saline
[6] = dose: 400.0 mg/kg/injection, schedule: Q01DX001 (ip), vehicle: saline
[7] = dose: 100.0 mg/kg/injection, schedule: Q01DX009 (ip), vehicle: saline with Tween-80
[8] = dose: 200.0 mg/kg/injection, schedule: Q01DX009 (ip), vehicle: saline with Tween-80
[9] = dose: 100.0 mg/kg/injection, schedule: Q01DX001 (ip), vehicle: carboxymethylcellulose (CMC)
[10] = dose: 100.0 mg/kg/injection, schedule: Q01DX001 (ip), vehicle: Klucel (hydroxypropylcellulose) (HPC)
[11] = dose: 200.0 mg/kg/injection, schedule: Q01DX001 (ip), vehicle: Klucel (hydroxypropylcellulose) (HPC)
[12] = dose: 200.0 mg/kg/injection, schedule: Q01DX009 (ip), vehicle: Klucel (hydroxypropylcellulose) (HPC)
[13] = dose: 400.0 mg/kg/injection, schedule: Q01DX001 (ip), vehicle: Klucel (hydroxypropylcellulose) (HPC)
[14] = dose: 25.0 mg/kg/injection, schedule: Q01DX001 (ip), vehicle: saline with Tween-80
[15] = dose: 50.0 mg/kg/injection, schedule: Q01DX001 (ip), vehicle: saline with Tween-80
[16] = dose: 100.0 mg/kg/injection, schedule: Q01DX001 (ip), vehicle: saline with Tween-80
[17] = dose: 100.0 mg/kg/injection, schedule: Q04DX003 (ip), vehicle: saline
[18] = dose: 200.0 mg/kg/injection, schedule: Q04DX003 (ip), vehicle: saline
[19] = dose: 200.0 mg/kg/injection, schedule: Q01DX001 (ip), vehicle: carboxymethylcellulose (CMC)
[20] = dose: 400.0 mg/kg/injection, schedule: Q01DX001 (ip), vehicle: carboxymethylcellulose (CMC)
[21] = dose: 200.0 mg/kg/injection, schedule: Q01DX001 (ip), vehicle: saline with Tween-80
[22] = dose: 50.0 mg/kg/injection, schedule: Q01DX009 (ip), vehicle: saline with Tween-80

Measured: T/C

COc1ccc(C2=CC(O)CC(c3ccccc3)C2c2ccccc2)cc1 (configuration not stated)
inactive: [1] 105 % of control | [2] 103 % of control | [3] 91 % of control

CC1COP(Oc2ccccc2)O1 (configuration not stated)
inactive: [4] 113 % of control | [5] 115 % of control | [6] 96 % of control

COc1ccc(C(=O)N=C(c2ccccc2)c2ccccc2)cc1
inactive: [7] 95 % of control | dose: 100.0 mg/kg/injection, schedule: Q04DX003 (ip), vehicle: Klucel (hydroxypropylcellulose) (HPC) 92 % of control | [8] 98 % of control | dose: 200.0 mg/kg/injection, schedule: Q04DX003 (ip), vehicle: Klucel (hydroxypropylcellulose) (HPC) 97 % of control | dose: 400.0 mg/kg/injection, schedule: Q01DX009 (ip), vehicle: saline with Tween-80 93 % of control | dose: 400.0 mg/kg/injection, schedule: Q04DX003 (ip), vehicle: Klucel (hydroxypropylcellulose) (HPC) 95 % of control

C=CCCCCCCCCC(=O)O (tested in a mixture with another compound)
inactive: dose: 10.0 mg/kg/injection, schedule: Q01DX001 (ip), vehicle: carboxymethylcellulose (CMC) 93 % of control | dose: 20.0 mg/kg/injection, schedule: Q01DX001 (ip), vehicle: carboxymethylcellulose (CMC) 104 % of control | dose: 40.0 mg/kg/injection, schedule: Q01DX001 (ip), vehicle: carboxymethylcellulose (CMC) 106 % of control | dose: 80.0 mg/kg/injection, schedule: Q01DX001 (ip), vehicle: carboxymethylcellulose (CMC) 101 % of control | [9] 97 % of control

COc1cc2c(c(OC)c1OC)-c1ccc(=O)c(OC)cc1[C@@H](NC(=O)CCl)CC2
inactive: [10] 94 % of control | dose: 100.0 mg/kg/injection, schedule: Q01DX009 (ip), vehicle: Klucel (hydroxypropylcellulose) (HPC) 103 % of control | [11] 98 % of control | [12] 103 % of control | [13] 105 % of control

COC(=O)c1cccc2cn3ccc4c5ccccc5nc-4c3cc12
inactive: [14] 98 % of control | [15] 92 % of control | [16] 95 % of control and 92 % of control | dose: 400.0 mg/kg/injection, schedule: Q01DX001 (ip), vehicle: saline with Tween-80 92 % of control

O=c1cc(/C=C/c2ccc3ccccc3n2)c2ccccc2[nH]1
inactive: [4] 98 % of control | [5] 96 % of control | [6] 102 % of control

C1CC2C(CCCC23OCCO3)C2(C1)OCCO2 (configuration not stated)
inactive: dose: 100.0 mg/kg/injection, schedule: Q01DX009 (ip), vehicle: saline 115 % of control and 111 % of control | [17] 94 % of control and 99 % of control | dose: 200.0 mg/kg/injection, schedule: Q01DX009 (ip), vehicle: saline 122 % of control and 107 % of control | [18] 112 % of control and 101 % of control | dose: 400.0 mg/kg/injection, schedule: Q01DX009 (ip), vehicle: saline 108 % of control and 98 % of control | dose: 400.0 mg/kg/injection, schedule: Q04DX003 (ip), vehicle: saline 109 % of control and 97 % of control

COc1ccc(NC(=O)c2ccc(Cl)cc2Cl)cc1
inactive: dose: 100.0 mg/kg/injection, schedule: Q04DX002 (ip), vehicle: Klucel (hydroxypropylcellulose) (HPC) 111 % of control | dose: 200.0 mg/kg/injection, schedule: Q04DX002 (ip), vehicle: Klucel (hydroxypropylcellulose) (HPC) 104 % of control | dose: 400.0 mg/kg/injection, schedule: Q04DX002 (ip), vehicle: Klucel (hydroxypropylcellulose) (HPC) 101 % of control

CC1N(C)CCC1(C)CN1c2ccccc2Sc2ccccc21 (configuration not stated)
inactive: [17] 108 % of control | [18] 102 % of control

COc1ccc(C2=C(c3ccccc3)C(c3ccccc3)=C(c3ccc(OC)cc3)C2=O)cc1
inactive: [9] 89 % of control | [19] 89 % of control | [20] 91 % of control

O=C(Nc1ccc(S(=O)(=O)NC2CCCCC2)cc1)OCc1ccccc1
inactive: [4] 95 % of control | [5] 89 % of control | [6] 95 % of control

CCOc1ccc(C(c2ccc(OCC)cc2)C(Cl)(Cl)Cl)cc1
inactive: [10] 106 % of control | [11] 100 % of control | [13] 100 % of control

CCN(CC)c1ccc(Sc2ccc([N+](=O)[O-])cc2[N+](=O)[O-])cc1
inactive: [9] 88 % of control | [19] 92 % of control | [20] 92 % of control

O/N=C/Cc1ccccc1
inactive: dose: 100.0 mg/kg/injection, schedule: Q04DX002 (ip), vehicle: DMSO 103 % of control | dose: 200.0 mg/kg/injection, schedule: Q04DX002 (ip), vehicle: DMSO 123 % of control

Cc1ccc(SCCn2cnc3c(ncn3Cc3ccccc3)c2=S)cc1
inactive: [1] 96 % of control | [2] 109 % of control | [3] 101 % of control

O=C1C=C(c2c(-c3ccccc3)[nH]c3ccccc23)C(=O)c2ccccc21
inactive: dose: 100.0 mg/kg/injection, schedule: Q01DX001 (ip), vehicle: other 92 % of control | dose: 200.0 mg/kg/injection, schedule: Q01DX001 (ip), vehicle: other 97 % of control

NC(N)=NC(=O)COc1ccc(Cl)cc1Cl
inactive: dose: 100.0 mg/kg/injection, schedule: Q04DX002 (ip), vehicle: saline + alcohol 100 % of control | dose: 200.0 mg/kg/injection, schedule: Q04DX002 (ip), vehicle: saline + alcohol 107 % of control

CCC1(O)C(=O)OCc2c1cc(C(=O)OC)n(C)c2=O (configuration not stated)
inactive: [14] 97 % of control | [15] 95 % of control | [16] 97 % of control | [21] 98 % of control

O=S(=O)(Nc1ccccn1)c1ccccc1
inactive: [12] 103 % of control | dose: 400.0 mg/kg/injection, schedule: Q01DX009 (ip), vehicle: Klucel (hydroxypropylcellulose) (HPC) 98 % of control

Cc1cc2nc(Cc3ccccc3)[nH]c2cc1C
inactive: [22] 90 % of control

Cc1cccc(C)c1NC(=O)OCCSc1ccc(Cl)cc1
inactive: [22] 115 % of control | [7] 96 % of control | [8] 93 % of control

COC(=O)c1[nH]c(=O)[nH]c(=O)c1[N+](=O)[O-]
inactive: dose: 75.0 mg/kg/injection, schedule: Q01DX001 (ip), vehicle: saline 106 % of control | dose: 150.0 mg/kg/injection, schedule: Q01DX001 (ip), vehicle: saline 93 % of control | dose: 300.0 mg/kg/injection, schedule: Q01DX001 (ip), vehicle: saline 93 % of control

C=CCOC(=O)CCl
inactive: dose: 55.0 mg/kg/injection, schedule: Q01DX Z (ip), vehicle: methylcellulose (MC) 87 % of control | [16] 92 % of control | [21] 98 % of control
